Data reported in PMC5612656, “In vitro and in vivo effects of 2,4 diaminoquinazoline inhibitors of the decapping scavenger enzyme DcpS: Context-specific modulation of SMN transcript levels” (PLoS ONE, 2017).

Test system: spinal cord transcriptome
Experiment: RNA-Seq of spinal cord tissue from 2B/- and 2B/+ mice
Format: in vivo, mouse
[1] = 2B+ spinal cord RNA Seq polyA, WT-RG vs. WT-Veh, adjusted p-value 1.01E-05
[2] = 2B+ spinal cord RNA Seq polyA, WT-RG vs. WT-Veh, adjusted p-value 3.86E-06

`Nc1nc(N)c2c(OCC3CCN(Cc4c(Cl)cccc4Cl)CC3)cccc2n1` [RG3039] was tested, and the “log2(fold-change) 4632404H12Rik transcript” value [1] was 1.233, the “log2(fold-change) Ifi44 transcript” value [1] was 3.126 and the “log2(fold-change) Snhg11 transcript” value [1] was 0.9645. The “log2(fold-change) Scn10a transcript” value [2] was -4.931, the “log2(fold-change) Tmem233 transcript” value [2] was -5.091 and the “log2(fold-change) 1700024P16Rik” value (2B-Veh vs 2B-RG3039) was -0.9143. For the same compound, the “log2(fold-change) 2010001M06Rik” value (2B-Veh vs 2B-RG3039) was -0.4589, the “log2(fold-change) 2810417H13Rik” value (2B-Veh vs 2B-RG3039) was 0.7557 and the “log2(fold-change) 2810459M11Rik” value (2B-Veh vs 2B-RG3039) was 0.8489. For the same compound, the “log2(fold-change) 6330444E15Rik” value (2B-Veh vs 2B-RG3039) was -1.493, the “log2(fold-change) 8430408G22Rik” value (2B-Veh vs 2B-RG3039) was -1.92 and the “log2(fold-change) A230028O05Rik” value (2B-Veh vs 2B-RG3039) was -1.123. The “log2(fold-change) AI429214” value (2B-Veh vs 2B-RG3039) was -0.7864, the “log2(fold-change) AW495222” value (2B-Veh vs 2B-RG3039) was -0.8389 and the “log2(fold-change) Abcc4” value (2B-Veh vs 2B-RG3039) was -0.4948. The “log2(fold-change) Acacb” value (2B-Veh vs 2B-RG3039) was -0.9081, the “log2(fold-change) Acer2” value (2B-Veh vs 2B-RG3039) was -1.144 and the “log2(fold-change) Ada” value (2B-Veh vs 2B-RG3039) was -2.097. The “log2(fold-change) Adhfe1” value (2B-Veh vs 2B-RG3039) was -0.3934, the “log2(fold-change) Adipor2” value (2B-Veh vs 2B-RG3039) was -1.046 and the “log2(fold-change) Adm” value (2B-Veh vs 2B-RG3039) was -0.7407. The “log2(fold-change) Alox12” value (2B-Veh vs 2B-RG3039) was 1.236, the “log2(fold-change) Alpl” value (2B-Veh vs 2B-RG3039) was 0.9933 and the “log2(fold-change) Angptl2” value (2B-Veh vs 2B-RG3039) was 0.7515. The “log2(fold-change) Angptl4” value (2B-Veh vs 2B-RG3039) was -1.6266, the “log2(fold-change) Apln” value (2B-Veh vs 2B-RG3039) was 0.547 and the “log2(fold-change) Aplnr” value (2B-Veh vs 2B-RG3039) was 1.065. The “log2(fold-change) Arrdc2” value (2B-Veh vs 2B-RG3039) was -1.418, the “log2(fold-change) Arrdc3” value (2B-Veh vs 2B-RG3039) was -0.727 and the “log2(fold-change) Aspm” value (2B-Veh vs 2B-RG3039) was 0.9497. For the same compound, the “log2(fold-change) Aurkb” value (2B-Veh vs 2B-RG3039) was 0.7105, the “log2(fold-change) BC049352” value (2B-Veh vs 2B-RG3039) was -1.185 and the “log2(fold-change) BC064078” value (2B-Veh vs 2B-RG3039) was -0.6877. The “log2(fold-change) Barx2” value (2B-Veh vs 2B-RG3039) was 0.4279, the “log2(fold-change) Bdh2” value (2B-Veh vs 2B-RG3039) was -0.7221 and the “log2(fold-change) Bst2” value (2B-Veh vs 2B-RG3039) was 1.093. For the same compound, the “log2(fold-change) Btbd16” value (2B-Veh vs 2B-RG3039) was -0.8478, the “log2(fold-change) Bub1b” value (2B-Veh vs 2B-RG3039) was 0.7302 and the “log2(fold-change) C130074G19Rik” value (2B-Veh vs 2B-RG3039) was 0.558. For the same compound, the “log2(fold-change) C330021F23Rik” value (2B-Veh vs 2B-RG3039) was 1.369, the “log2(fold-change) C430049B03Rik” value (2B-Veh vs 2B-RG3039) was 0.7515 and the “log2(fold-change) Casc5” value (2B-Veh vs 2B-RG3039) was 0.9628. The “log2(fold-change) Ccdc150” value (2B-Veh vs 2B-RG3039) was -0.9419, the “log2(fold-change) Ccna2” value (2B-Veh vs 2B-RG3039) was 0.5769 and the “log2(fold-change) Ccnb1” value (2B-Veh vs 2B-RG3039) was 0.5224. For the same compound, the “log2(fold-change) Ccnb2” value (2B-Veh vs 2B-RG3039) was 0.5384, the “log2(fold-change) Cd101” value (2B-Veh vs 2B-RG3039) was -0.9911 and the “log2(fold-change) Cd248” value (2B-Veh vs 2B-RG3039) was 0.749. The “log2(fold-change) Cdk1” value (2B-Veh vs 2B-RG3039) was 0.4623, the “log2(fold-change) Cdkn1a” value (2B-Veh vs 2B-RG3039) was -0.7839 and the “log2(fold-change) Chaf1b” value (2B-Veh vs 2B-RG3039) was 0.7063. The “log2(fold-change) Chodl” value (2B-Veh vs 2B-RG3039) was 0.3892, the “log2(fold-change) Col8a1” value (2B-Veh vs 2B-RG3039) was 0.5045 and the “log2(fold-change) Col12a1” value (2B-Veh vs 2B-RG3039) was 0.6621. For the same compound, the “log2(fold-change) Colq” value (2B-Veh vs 2B-RG3039) was -0.452, the “log2(fold-change) Crispld1” value (2B-Veh vs 2B-RG3039) was 0.7708 and the “log2(fold-change) Cth” value (2B-Veh vs 2B-RG3039) was -0.9118. The “log2(fold-change) Cxcl12” value (2B-Veh vs 2B-RG3039) was 0.9102, the “log2(fold-change) D630039A03Rik” value (2B-Veh vs 2B-RG3039) was -0.7287 and the “log2(fold-change) Dao” value (2B-Veh vs 2B-RG3039) was -0.6435. The “log2(fold-change) Dcxr” value (2B-Veh vs 2B-RG3039) was -0.6455, the “log2(fold-change) Ddit4” value (2B-Veh vs 2B-RG3039) was -0.977 and the “log2(fold-change) Ddo” value (2B-Veh vs 2B-RG3039) was -0.6951. The “log2(fold-change) Depdc1b” value (2B-Veh vs 2B-RG3039) was 0.6712, the “log2(fold-change) Dlgap5” value (2B-Veh vs 2B-RG3039) was 0.6868 and the “log2(fold-change) Dnah8” value (2B-Veh vs 2B-RG3039) was 0.7242. The “log2(fold-change) Dtl” value (2B-Veh vs 2B-RG3039) was 0.8053, the “log2(fold-change) E230015J15Rik” value (2B-Veh vs 2B-RG3039) was -1.036 and the “log2(fold-change) Edn1” value (2B-Veh vs 2B-RG3039) was -1.282. For the same compound, the “log2(fold-change) Ednrb” value (2B-Veh vs 2B-RG3039) was 0.7966, the “log2(fold-change) Egfl6” value (2B-Veh vs 2B-RG3039) was 0.8631 and the “log2(fold-change) Elf5” value (2B-Veh vs 2B-RG3039) was 0.6236. For the same compound, the “log2(fold-change) Entpd2” value (2B-Veh vs 2B-RG3039) was 0.5977, the “log2(fold-change) Espl1” value (2B-Veh vs 2B-RG3039) was 0.7643 and the “log2(fold-change) Etnppl” value (2B-Veh vs 2B-RG3039) was -2.764. The “log2(fold-change) Ets1” value (2B-Veh vs 2B-RG3039) was 0.8775, the “log2(fold-change) Fabp7” value (2B-Veh vs 2B-RG3039) was 0.8454 and the “log2(fold-change) Fam64a” value (2B-Veh vs 2B-RG3039) was 0.6855. The “log2(fold-change) Fam107a” value (2B-Veh vs 2B-RG3039) was -1.657, the “log2(fold-change) Fam214a” value (2B-Veh vs 2B-RG3039) was -0.4707 and the “log2(fold-change) Fam83d” value (2B-Veh vs 2B-RG3039) was -1.4639. The “log2(fold-change) Fas” value (2B-Veh vs 2B-RG3039) was -0.8656, the “log2(fold-change) Fgf21” value (2B-Veh vs 2B-RG3039) was -1 and the “log2(fold-change) Fgfr4” value (2B-Veh vs 2B-RG3039) was 1.087. For the same compound, the “log2(fold-change) Fkbp5” value (2B-Veh vs 2B-RG3039) was -1.583, the “log2(fold-change) Fli1” value (2B-Veh vs 2B-RG3039) was 0.4642 and the “log2(fold-change) Fzd10” value (2B-Veh vs 2B-RG3039) was 1.186. For the same compound, the “log2(fold-change) Galnt15” value (2B-Veh vs 2B-RG3039) was -1.568, the “log2(fold-change) Gatsl3” value (2B-Veh vs 2B-RG3039) was -1.006 and the “log2(fold-change) Gkn3” value (2B-Veh vs 2B-RG3039) was 1.302. The “log2(fold-change) Glul” value (2B-Veh vs 2B-RG3039) was -0.8158, the “log2(fold-change) Gm266” value (2B-Veh vs 2B-RG3039) was 0.9562 and the “log2(fold-change) Gm807” value (2B-Veh vs 2B-RG3039) was -1.6695.
